Reference: ChEMBL document CHEMBL4393734, “Structure-aided optimization of 3-O-β-chacotriosyl ursolic acid as novel H5N1 entry inhibitors with high selective index” (Bioorg Med Chem, 2019)
Active and inactive are the calls of the source. No cut-off for these calls is given here.

What was measured:
[1] = system: Influenza A virus; experiment: Antiviral activity against influenza A virus A/Duck/Guangdong/99(H5N1) infected in MDCK cells assessed as reduction in virus induced cytopathic effect preincubated for 30 mins with virus followed by viral infection and measured after 48 hrs by microscopy analysis; assay type: functional, organism-based
[2] = Cytotoxicity against dog MDCK cells measured after 48 hrs by MTT assay; assay type: cell-based, Canis lupus familiaris
[3] = Selectivity index, ratio of CC50 for dog MDCK cells to IC50 for influenza A virus A/Duck/Guangdong/99(H5N1); assay type: toxicity; conditions: read-out: Ratio CC50/IC50
[4] = biological target: Neuraminidase (Influenza A virus (A/Puerto Rico/8/1934(H1N1))) (UniProt P03468); experiment: Inhibition of Influenza A virus (A/Puerto Rico/8/34(H1N1) neuraminidase N1 using MUNANA as substrate preincubated for 30 mins followed by substrate addition and further incubated for 1 hr in dark by microplate reader based fluorescence assay
[5] = system: Influenza A virus; experiment: Antiviral activity against influenza A virus A/Duck/Guangdong/99(H5N1) infected in MDCK cells assessed as inhibition of viral replication measured after 48 hr post infection by FITC/DAPI-staining based immunofluorescence microscopy assay; assay type: functional, organism-based
[6] = system: Influenza A virus; experiment: Antiviral activity against influenza A virus H5N1 pseudovirus with HA (A/Thailand/Kan353/2004(H5N1) - HA/NA (A/Thailand/Kan353/2004(H5N1) -NA/HIV core plasmids infected in MDCK cells assessed as pseudovirus neutralization incubated for 30 mins with virus followed by viral infection and measured after 48 hrs by luciferase assay; assay type: functional, organism-based
[7] = biological target: Hemagglutinin (Influenza A virus) (UniProt B4URE7); experiment: Inhibition of influenza A virus HA-mediated chicken erythrocytes hemagglutination measured after 1 hr
[8] = biological target: Hemagglutinin (Influenza A virus, UniProt B4URE7); experiment: Binding affinity to influenza A virus hemagglutin by surface plasmon resonance assay
[9] = Binding affinity to influenza A virus hemagglutinin 1 by surface plasmon resonance assay
[10] = system: Vesicular stomatitis virus; experiment: Antiviral activity against VSV-G pseudovirus infected in MDCK cells assessed as pseudovirus neutralization preincubated for 30 mins with virus and followed by viral infection and measured after 48 hrs by luciferase assay; assay type: functional, organism-based

Chain of Neuraminidase (Influenza A virus (A/Puerto Rico/8/1934(H1N1))) (P03468 whole entry): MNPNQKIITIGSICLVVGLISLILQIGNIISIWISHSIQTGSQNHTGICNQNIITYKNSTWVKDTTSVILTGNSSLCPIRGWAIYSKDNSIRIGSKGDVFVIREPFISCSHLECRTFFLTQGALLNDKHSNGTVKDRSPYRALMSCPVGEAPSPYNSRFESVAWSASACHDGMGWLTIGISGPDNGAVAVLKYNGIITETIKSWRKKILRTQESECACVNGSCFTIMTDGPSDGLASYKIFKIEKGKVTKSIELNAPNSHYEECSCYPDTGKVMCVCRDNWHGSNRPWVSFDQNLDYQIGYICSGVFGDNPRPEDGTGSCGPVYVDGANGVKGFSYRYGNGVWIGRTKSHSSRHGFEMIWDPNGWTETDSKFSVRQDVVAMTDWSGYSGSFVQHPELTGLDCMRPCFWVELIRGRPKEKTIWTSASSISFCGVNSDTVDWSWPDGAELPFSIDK
Chain of Hemagglutinin (Influenza A virus) (B4URE7 as listed by the source): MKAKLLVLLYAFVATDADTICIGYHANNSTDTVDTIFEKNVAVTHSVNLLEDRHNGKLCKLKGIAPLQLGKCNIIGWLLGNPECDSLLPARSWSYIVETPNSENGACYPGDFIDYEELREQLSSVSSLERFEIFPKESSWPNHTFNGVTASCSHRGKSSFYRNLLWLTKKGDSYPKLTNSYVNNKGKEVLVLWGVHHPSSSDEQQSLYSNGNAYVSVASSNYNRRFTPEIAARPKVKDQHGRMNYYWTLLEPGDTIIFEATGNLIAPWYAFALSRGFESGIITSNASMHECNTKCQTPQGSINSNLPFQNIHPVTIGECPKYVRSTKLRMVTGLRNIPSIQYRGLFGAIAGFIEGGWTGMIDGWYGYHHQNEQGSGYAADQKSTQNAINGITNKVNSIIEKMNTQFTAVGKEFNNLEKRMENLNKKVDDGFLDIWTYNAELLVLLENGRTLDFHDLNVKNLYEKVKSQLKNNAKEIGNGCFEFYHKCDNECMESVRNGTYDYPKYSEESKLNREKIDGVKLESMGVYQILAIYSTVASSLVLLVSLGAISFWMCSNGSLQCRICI
Chain of Hemagglutinin (B4URE7 whole entry): as the sequence (B4URE7 as listed by the source) above

Structure (SMILES) | IC50 [1] [µM] | CC50 at 48 h [2] [µM] | selectivity ratio [3] | other results
C[C@H]1[C@H](C)CC[C@]2(C(=O)NCCN(C)C)CC[C@]3(C)C(=CC[C@@H]4[C@@]5(C)CC[C@H](O[C@@H]6O[C@H](CO)[C@@H](O[C@@H]7O[C@@H](C)[C@H](O)[C@@H](O)[C@H]7O)[C@H](O)[C@H]6O[C@@H]6O[C@@H](C)[C@H](O)[C@@H](O)[C@H]6O)C(C)(C)[C@@H]5CC[C@]43C)[C@H]12 | > 50 |  |  | 
COc1ccc(NC(=O)[C@]23CC[C@@H](C)[C@H](C)[C@H]2C2=CC[C@@H]4[C@@]5(C)CC[C@H](O[C@@H]6O[C@H](CO)[C@@H](O[C@@H]7O[C@@H](C)[C@H](O)[C@@H](O)[C@H]7O)[C@H](O)[C@H]6O[C@@H]6O[C@@H](C)[C@H](O)[C@@H](O)[C@H]6O)C(C)(C)[C@@H]5CC[C@@]4(C)[C@]2(C)CC3)cc1 | 2.12 | > 1000 | > 472 | inhibition [4]: inactive
C[C@H]1[C@H](C)CC[C@]2(C(=O)Nc3ccc(OC(F)(F)F)cc3)CC[C@]3(C)C(=CC[C@@H]4[C@@]5(C)CC[C@H](O[C@@H]6O[C@H](CO)[C@@H](O[C@@H]7O[C@@H](C)[C@H](O)[C@@H](O)[C@H]7O)[C@H](O)[C@H]6O[C@@H]6O[C@@H](C)[C@H](O)[C@@H](O)[C@H]6O)C(C)(C)[C@@H]5CC[C@]43C)[C@H]12 | 8.56 | 451 | 52.6 | 
C[C@H]1[C@H](C)CC[C@]2(C(=O)N3CCCC3)CC[C@]3(C)C(=CC[C@@H]4[C@@]5(C)CC[C@H](O[C@@H]6O[C@H](CO)[C@@H](O[C@@H]7O[C@@H](C)[C@H](O)[C@@H](O)[C@H]7O)[C@H](O)[C@H]6O[C@@H]6O[C@@H](C)[C@H](O)[C@@H](O)[C@H]6O)C(C)(C)[C@@H]5CC[C@]43C)[C@H]12 | 3.25 | 42.4 | 13 | 
COc1cccc(NC(=O)[C@]23CC[C@@H](C)[C@H](C)[C@H]2C2=CC[C@@H]4[C@@]5(C)CC[C@H](O[C@@H]6O[C@H](CO)[C@@H](O[C@@H]7O[C@@H](C)[C@H](O)[C@@H](O)[C@H]7O)[C@H](O)[C@H]6O[C@@H]6O[C@@H](C)[C@H](O)[C@@H](O)[C@H]6O)C(C)(C)[C@@H]5CC[C@@]4(C)[C@]2(C)CC3)c1 | 5.92 | > 1000 | > 113 | 
C[C@H]1[C@H](C)CC[C@]2(C(=O)Nc3ccccc3Cl)CC[C@]3(C)C(=CC[C@@H]4[C@@]5(C)CC[C@H](O[C@@H]6O[C@H](CO)[C@@H](O[C@@H]7O[C@@H](C)[C@H](O)[C@@H](O)[C@H]7O)[C@H](O)[C@H]6O[C@@H]6O[C@@H](C)[C@H](O)[C@@H](O)[C@H]6O)C(C)(C)[C@@H]5CC[C@]43C)[C@H]12 | 2.98 | 306 | 103 | 
C[C@H]1[C@H](C)CC[C@]2(C(=O)Nc3ccc(Br)cc3)CC[C@]3(C)C(=CC[C@@H]4[C@@]5(C)CC[C@H](O[C@@H]6O[C@H](CO)[C@@H](O[C@@H]7O[C@@H](C)[C@H](O)[C@@H](O)[C@H]7O)[C@H](O)[C@H]6O[C@@H]6O[C@@H](C)[C@H](O)[C@@H](O)[C@H]6O)C(C)(C)[C@@H]5CC[C@]43C)[C@H]12 | > 50 |  |  | 
C[C@H]1[C@H](C)CC[C@]2(C(=O)Nc3ccc(Cl)cc3)CC[C@]3(C)C(=CC[C@@H]4[C@@]5(C)CC[C@H](O[C@@H]6O[C@H](CO)[C@@H](O[C@@H]7O[C@@H](C)[C@H](O)[C@@H](O)[C@H]7O)[C@H](O)[C@H]6O[C@@H]6O[C@@H](C)[C@H](O)[C@@H](O)[C@H]6O)C(C)(C)[C@@H]5CC[C@]43C)[C@H]12 | 3.48 | > 1000 | > 287 | inhibition [4]: inactive
C[C@H]1[C@H](C)CC[C@]2(C(=O)Nc3ccc(F)cc3)CC[C@]3(C)C(=CC[C@@H]4[C@@]5(C)CC[C@H](O[C@@H]6O[C@H](CO)[C@@H](O[C@@H]7O[C@@H](C)[C@H](O)[C@@H](O)[C@H]7O)[C@H](O)[C@H]6O[C@@H]6O[C@@H](C)[C@H](O)[C@@H](O)[C@H]6O)C(C)(C)[C@@H]5CC[C@]43C)[C@H]12 | 5.28 | > 1000 | > 189 | 
COc1ccccc1NC(=O)[C@]12CC[C@@H](C)[C@H](C)[C@H]1C1=CC[C@@H]3[C@@]4(C)CC[C@H](O[C@@H]5O[C@H](CO)[C@@H](O[C@@H]6O[C@@H](C)[C@H](O)[C@@H](O)[C@H]6O)[C@H](O)[C@H]5O[C@@H]5O[C@@H](C)[C@H](O)[C@@H](O)[C@H]5O)C(C)(C)[C@@H]4CC[C@@]3(C)[C@]1(C)CC2 | 1.05 | > 1000 | > 952 | Activity [5]: Dose-dependent effect; IC50 [6]: 1.28 µM; inhibition [4]: inactive; inhibition [7]: Dose-dependent effect; Kd [8]: 0.00122 µM; Kd [9]: 0.44 µM; inhibition [10]: inactive
C[C@H]1[C@H](C)CC[C@]2(C(=O)Nc3ccccc3)CC[C@]3(C)C(=CC[C@@H]4[C@@]5(C)CC[C@H](O[C@@H]6O[C@H](CO)[C@@H](O[C@@H]7O[C@@H](C)[C@H](O)[C@@H](O)[C@H]7O)[C@H](O)[C@H]6O[C@@H]6O[C@@H](C)[C@H](O)[C@@H](O)[C@H]6O)C(C)(C)[C@@H]5CC[C@]43C)[C@H]12 | 5.85 | > 1000 | > 171 | 
CNC(=O)[C@]12CC[C@@H](C)[C@H](C)[C@H]1C1=CC[C@@H]3[C@@]4(C)CC[C@H](O[C@@H]5O[C@H](CO)[C@@H](O[C@@H]6O[C@@H](C)[C@H](O)[C@@H](O)[C@H]6O)[C@H](O)[C@H]5O[C@@H]5O[C@@H](C)[C@H](O)[C@@H](O)[C@H]5O)C(C)(C)[C@@H]4CC[C@@]3(C)[C@]1(C)CC2 | 11.2 | 683 | 60.7 | 
C[C@H]1[C@H](C)CC[C@]2(C(=O)NCc3ccccc3)CC[C@]3(C)C(=CC[C@@H]4[C@@]5(C)CC[C@H](O[C@@H]6O[C@H](CO)[C@@H](O[C@@H]7O[C@@H](C)[C@H](O)[C@@H](O)[C@H]7O)[C@H](O)[C@H]6O[C@@H]6O[C@@H](C)[C@H](O)[C@@H](O)[C@H]6O)C(C)(C)[C@@H]5CC[C@]43C)[C@H]12 | 9.35 | 123 | 13.2 | 
COc1ccc(CNC(=O)[C@]23CC[C@@H](C)[C@H](C)[C@H]2C2=CC[C@@H]4[C@@]5(C)CC[C@H](O[C@@H]6O[C@H](CO)[C@@H](O[C@@H]7O[C@@H](C)[C@H](O)[C@@H](O)[C@H]7O)[C@H](O)[C@H]6O[C@@H]6O[C@@H](C)[C@H](O)[C@@H](O)[C@H]6O)C(C)(C)[C@@H]5CC[C@@]4(C)[C@]2(C)CC3)cc1 | 8.72 | 100 | 11.5 | 
C[C@H]1[C@H](C)CC[C@]2(C(=O)Nc3cccc(Cl)c3)CC[C@]3(C)C(=CC[C@@H]4[C@@]5(C)CC[C@H](O[C@@H]6O[C@H](CO)[C@@H](O[C@@H]7O[C@@H](C)[C@H](O)[C@@H](O)[C@H]7O)[C@H](O)[C@H]6O[C@@H]6O[C@@H](C)[C@H](O)[C@@H](O)[C@H]6O)C(C)(C)[C@@H]5CC[C@]43C)[C@H]12 | 7.35 | > 1000 | > 136 | 
C[C@H]1[C@H](C)CC[C@]2(C(=O)O)CC[C@]3(C)C(=CC[C@@H]4[C@@]5(C)CC[C@H](O[C@@H]6O[C@H](CO)[C@@H](O[C@@H]7O[C@@H](C)[C@H](O)[C@@H](O)[C@H]7O)[C@H](O)[C@H]6O[C@@H]6O[C@@H](C)[C@H](O)[C@@H](O)[C@H]6O)C(C)(C)[C@@H]5CC[C@]43C)[C@H]12 | 16.4 | 25.3 | 1.5 | 
